Patent US11666633B2, “Long-acting peptide analogs” (The Board of Trustees of the Leland Stanford Junior …, priority 2011, dated 2023)
*1 amine or outer side, *2 acyl side, *3 side chain or, on linkers, in order; H or OH if unused. Where no end group is shown, it is not given here. K(Palm) = CCCCCCCCCCCCCCCC(=O)NCCCC[C@H](N[*:1])C(=O)[*:2]

Tests used:
SHR rats [1] = conditions: unmodified ADM peptide; stated as what it normally lasts, no figure; cited from earlier work
SHR rats [2] = experiment: Systolic blood pressure in conscious SHR rats (tail-cuff) after i.p. intermedin peptides; type: in vivo, rat; conditions: for duration of hypotensive effect in vivo: i.p.
Description: FIG. 1A-1C are examples of blood pressure measurements in SHR rats after treatment with a long-acting intermedin peptide (Palmitic acid-modified IMD, IMD-PA), A. 30 nmoles/kg BW; B/C, 100 nmoles/kg BW.
FIG. 2A-2B are examples of blood pressure measurements in SHR rates after injection with a wild type intermedin peptide (IMD, 100 nmoles/kg BW). The hypotensive effects of the IMD-PA peptide lasted over five hours in vivo, whereas that of the unmodified IMD peptide lasted less than 1 hr.
(§1) The intermedin peptides were dissolved in saline solution with 10-20% DMSO at 10 micromoles/liter, Before injection, aliquots of peptides were dissolved in PBS to a injection final volume of 100 ul. Blood pressure measurements were made in conscious SHR rats (9-16 weeks of age) pre-adapted to the measurement procedure. Indirect systolic pressure was determined by a programmable non-invasive blood pressure system using the tail-cuff method (Kent Scientific Corporation). Following attachment of the pressure transducer, rats were left undisturbed for 10 min before base-line measurements that spanned a 15-20 minute interval. Following base-line measurements, rats were injected intraperitoneally with varying doses of peptides, or saline with 10% DMSO. Blood pressure and heart rate were monitored for 20-40 min at 30-s intervals. Changes in blood pressure were calculated as the average of measurements performed within a given time interval.
The hypotensive effects of this peptide lasted over five hours in vivo, whereas that of the unmodified IMD peptide lasted less than 1 hr. The results from control animals injected with PBS is depicted in FIG. 3, and from the unmodified peptide in FIG. 2.

SHR rats [3] = experiment: Systolic blood pressure in conscious SHR rats (tail-cuff) after i.p. adrenomedullin peptides; type: in vivo, rat
Procedure: FIG. 5A-5C show examples of systolic pressure measurement of SHR rats after an injection of a long-acting adrenomedullin peptide (Palmitic acid-conjugated ADM, ADM-PA, 100 nmoles/kg BM. The hypotensive effect of this peptide lasted over five hours in vivo. By contrast, the hypotensive effect of unmodified ADM peptide normally lasts less than 1.5 hr.
as §1, with “Biological activity of adrenomedullin analog in vivo. The” for “The”, “adrenomedullin” for “intermedin”, “200 μl.” for “100 ul.”, “10-15” for “15-20”, “20-s” for “30-s”
(see Roh et al. Mol Endocrinol. 2005 November; 19(11):2824-38).

[4] = target: T1, adrenomedullin receptor 1 (CLR/RAMP2) (Homo sapiens, UniProt O60895+Q16602); experiment: Stimulatory effect in 293T cells expressing recombinant adrenomedullin receptor 1; type: cell-based; conditions: 293T cells expressing CLR/RAMP2
T1 construct: expressed in transfected cells; host or cells: 293T cells
T1 sequence (Q16602 23-461): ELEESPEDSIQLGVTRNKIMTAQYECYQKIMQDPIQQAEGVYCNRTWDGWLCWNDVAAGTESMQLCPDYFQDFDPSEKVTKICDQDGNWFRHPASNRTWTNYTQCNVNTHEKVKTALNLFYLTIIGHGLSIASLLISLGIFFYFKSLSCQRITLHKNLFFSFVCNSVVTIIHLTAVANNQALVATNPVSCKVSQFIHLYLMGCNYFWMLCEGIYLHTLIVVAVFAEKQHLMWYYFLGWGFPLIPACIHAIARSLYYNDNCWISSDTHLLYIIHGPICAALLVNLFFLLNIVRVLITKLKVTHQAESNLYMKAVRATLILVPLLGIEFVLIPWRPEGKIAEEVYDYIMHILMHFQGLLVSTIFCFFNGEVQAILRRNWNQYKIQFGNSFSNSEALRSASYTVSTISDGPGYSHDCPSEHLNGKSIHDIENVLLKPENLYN
T1 sequence (O60895 43-175): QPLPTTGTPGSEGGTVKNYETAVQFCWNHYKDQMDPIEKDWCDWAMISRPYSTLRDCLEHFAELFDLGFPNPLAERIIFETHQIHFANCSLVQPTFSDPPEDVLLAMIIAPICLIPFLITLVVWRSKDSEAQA
Description: (§2) Biological activity of adrenomedullin in vitro.

[5] = target: T2, adrenomedullin receptor 2 (CLR/RAMP3) (Homo sapiens, UniProt O60896+Q16602); experiment: Stimulatory effect in 293T cells expressing recombinant adrenomedullin receptor 2; type: cell-based; conditions: 293T cells expressing CLR/RAMP3
T2 construct: expressed in transfected cells; host or cells: 293T cells
T2 sequence (Q16602 23-461): as the sequence (Q16602 23-461) above
T2 sequence (O60896 24-148): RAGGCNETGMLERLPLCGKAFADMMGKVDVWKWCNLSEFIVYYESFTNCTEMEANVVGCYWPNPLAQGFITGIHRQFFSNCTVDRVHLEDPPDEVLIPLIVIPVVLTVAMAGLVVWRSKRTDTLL
Description: as §2

[6] = Immunoreactive ADM retained in vivo after i.p. injection, by ELISA

In the case of “ADM: wild type, unmodified adrenomedullin peptide (YRQSMNNFQGLRSFGCRFGTCTVQKLAHQIYQFTDKDKDNVAPRSKISPQGY; ends and bridges not checked; cysteine pairing not given here)”, the “duration of hypotensive effect (normally)” value (SHR rats [1]) is given as “less than 1.5 hr”.
For “IMD: wild type, unmodified intermedin peptide (VGCVLGTCQVQNLSHRLWQLMGPAGRQDSAPVDPSSPHSY; ends and bridges not checked; cysteine pairing not given here) [reference compound]”, the “duration of hypotensive effect in vivo” value (SHR rats [2]; unmodified IMD 100 nmoles/kg BW) was “less than 1 hr”.
For “K(mod)GCRFGTCTVQKLAHQIYQFTDKDKDNVAPRSKISPQGY [ADM-PA]”, the “change in systolic blood pressure over time” value (SHR rats [3]; SHR rats, 100 nmoles/kg body weight) was “significant and long lasting drop”, the “duration of hypotensive effect in vivo” value (SHR rats [3]; SHR rats, ADM-PA 100 nmoles/kg) was “over five” and the “effective life in vivo compared with wild type ADM” value (SHR rats [3]; in vivo) was “significantly longer effective life”. For the same substance, the “stimulatory effect in vitro compared with wild type ADM” value [4] was “lower than that of the wild type ADM”, the “stimulatory effect in vitro compared with wild type ADM” value [5] was “lower than that of the wild type ADM” and the “level of immunoreactive peptide retained in vivo compared with ADM” value ([6]; 12 hr after i.p. injection) was “significantly higher”. The “half-life compared with ADM” value ([6]; measurement of immunoreactive ADM using ELISA) was “long half-life as compared to ADM”.
With “K(mod)GCVLGTCQVQNLSHRLWQLMGPAGRQDSAPVDPSSPHSY ({K(Palm)}-GCVLGTCQVQNLSHRLWQLMGPAGRQDSAPVDPSSPHSY; ends and bridges not checked) [IMD-PA, long-acting intermedin peptide, palmitic acid-modified via an incorporated Lys(PAL) residue]” the “change in systolic blood pressure over time” value (SHR rats [2]; i.p. injection) was “significant and long lasting drop” and the “duration of hypotensive effect in vivo” value (SHR rats [2]; IMD-PA 30 or 100 nmoles/kg BW) was “over five”.
